{"source": "patent US20240101552A1", "about": "“CARBONYL HETEROCYCLIC COMPOUND AND APPLICATION THEREOF” (SHANGHAI PHARMACEUTICALS HOLDING CO., LTD., priority 2020, published 2024)", "test": "Solubility remark in the LANCL2 binding table (footnote a)", "assay_type": "physicochemical", "design": "key: ª: “a” indicated poor solubility", "data": [{"smiles": "O=C(c1cccc(-c2cn3ccccc3n2)c1)N1CCN(C(=O)c2cccc(-c3cn4ccccc4n3)c2)CC1", "note": "[Embodiment L-36, Piperazine-1,4-diylbis((3-(imidazol[1,2-a]pyridin-2-yl)phenyl)methanone)]", "values": [{"measurement": "solubility (footnote a)", "value": "ª"}]}]}
